# Tested on: patients with documented CAD
# Assay: Plasma LDL levels in CAD patients on simvastatin therapy
# Type: in vivo, human
# Details: simvastatin 40 mg/day, after 4 months on therapy, 13 CAD patients, data not shown
# Description: For all studies, patients were recruited and screened for coronary artery disease (CAD) according to the following criteria.
# Study Population: Human subjects with active vascular disease were recruited for this aspect of the study. They were screened by a history and physical exam, measurements of lipid profile and routine blood chemistries to include for example, CBC, TSH, free T4, ALT, AST, CPK, CRP, BUN, creatinine, glucose, hemoglobin A1c (if diabetic), urinalysis for protein and glucose. First preference was given to subjects with coronary artery disease. Exclusions included the use of lipid lowering or high dose angiotensin II—altering (or blocking) drugs within three months of the study. For the purposes of the following example, because of the limitations in finding subjects with coronary artery disease that are not on lipid lowering drugs or other vascular active drugs, subjects were also accepted with high coronary disease risk ratings as determined by Framingham Risk Assessment including both hard and soft risk predictors. […]
# All lipid, lipoprotein, and apolipoprotein measurements were performed in the Emory Lipid Research Laboratory, a participant in the NHLBI/CDC Lipid Standardization Program. MDA proteins were measured in the Emory Lipid Research Laboratory using a commercially available kit. […]
structure (smiles),measurement,value
CCC(C)(C)C(=O)O[C@H]1C[C@@H](C)C=C2C=C[C@H](C)[C@H](CC[C@@H]3C[C@@H](O)CC(=O)O3)[C@H]21 [simvastatin],LDL levels reduced by an average of,32.1%

# Source: patent US7749711B2, “Methods of assessing endothelial dysfunction using acute transient responses following fat administration” (priority 2003, dated 2010)
